The source of these data is publication PMC10647090, “Structure-Based Discovery of Mouse Trace Amine-Associated Receptor 5 Antagonists” (Journal of Chemical Information and Modeling, 2023).

Entries after “also recorded” stand apart in the source; their conditions may differ. Like-named read-outs stand apart in the source and are kept apart here.

The target of assay [1] is T1, mTAAR5 (Mus musculus, UniProt Q5QD14).
T1 construct: rho tag (rhodopsin-derived tag) (N); expressed in transfected cells; host or cells: HEK293, transient transfection with lipofectamine 2000; plasmid a gift from Prof; Liberles
T1 sequence (Q5QD14 1-337): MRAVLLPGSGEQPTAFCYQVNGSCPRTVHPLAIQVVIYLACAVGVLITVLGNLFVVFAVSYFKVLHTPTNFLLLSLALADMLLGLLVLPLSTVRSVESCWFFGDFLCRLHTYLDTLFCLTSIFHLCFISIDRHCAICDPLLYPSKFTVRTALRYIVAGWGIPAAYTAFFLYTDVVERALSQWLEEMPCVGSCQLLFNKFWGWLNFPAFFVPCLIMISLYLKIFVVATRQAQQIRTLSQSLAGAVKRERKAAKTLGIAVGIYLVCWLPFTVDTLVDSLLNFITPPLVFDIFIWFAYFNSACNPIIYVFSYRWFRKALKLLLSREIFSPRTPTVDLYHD
The assay is described as follows: BRET cAMP assay, antagonistic activity against TMA. The format is cell-based. Particulars: HEK293 cells cotransfected with mTAAR5 and cAMP BRET (EPAC) biosensor; against TMA 10 μM; 3 independent experiments. How it is done:
(§1) TAAR5 is a receptor coupled to a stimulatory G protein, and its activation evokes cAMP production. Therefore, HEK293 cells were cotransfected with mTAAR5 and cAMP BRET biosensor. Light emission changes according to the cAMP fluctuation.[60] TMA (10 μM) was used as a reference mTAAR5 agonist to evaluate the activity of the compounds throughout the BRET-based assay and tested at 10 μM for either agonistic or antagonistic activity.
Human embryonic kidney 293cells (HEK293) were maintained in Dulbecco’s modified Eagle’s, high glucose, GlutaMAX^TM medium (Gibco^TM) supplemented with 10% 331 (v/v) of FBS and 1% penicillin/streptomycin at 37 °C in a humidified atmosphere at 95% air and 5% CO2. For the bioluminescence resonance energy transfer (BRET) experiments, cells were plated in 10 cm dishes 24 h prior to the transient transfection of 7 μg of rho-TAAR5 (a generous gift from Prof. Liberles) and 7 μg of EPAC using lipofectamine 2000 (Invitrogen). Five h after transfection, cells were plated in poly-D-lysinecoated 96-well microplates (well-assay white plate with clear bottom, Greiner) at a density of 70,000 cells per well in Opti-MEM (Gibco^TM) and then cultured for an additional 24 h. The serotonergic ligand library was purchased from Enzo (SCREEN-WELL Serotonergic ligand library).
BRET experiments were performed as described previously.[60] All the compounds were tested at the initial concentration of 10 μM. For the evaluation of the agonistic activity, the plate was read immediately after the addition of the compounds for approximately 20 min. For the evaluation of the antagonistic activity, the compounds were added 5 min before the addition of the control TAAR5 agonist, TMA, and read for approximately 20 min. For the ones that were active, a concentration–response assessment was performed by using different concentrations of the antagonist. TMA is the standard mTAAR5 agonist and induces an increase in cAMP levels. The activity of a putative mTAAR5 antagonist was evaluated in its ability to decrease or abolish the increase of the cAMP levels induced by TMA. The IC50 was then calculated by measuring the effect of the compounds against the effect of TMA at 10 μM. Readings were collected using Tecan Infinite instrument that allows the sequential signals integration detected in the 465 to 505 nm and 515 to 555 nm windows. EPAC BRET biosensor was used to monitor cAMP levels. BRET ratio is plotted in the graphs. Increased cAMP specifically reflects an increase in the BRET ratio. The activity of an antagonist was evaluated in terms of the ability to counteract the TMA increase in the BRET ratio. The acceptor/donor ratio was calculated as previously described.[108] […] The data are representative of at least 3 independent experiments and are expressed as means ± SEM.
For orientation: BRET reads energy transfer from a luciferase to a nearby fluorophore.

The next assay has as its system 5-HT1E. Further details: method as in ref 6, 11-12 (SI). Particulars: 11-12 (SI); cited from earlier work.
Another assay concerns the target 5-HT1F. Further details: method as in ref 6, 11-12 (SI). Particulars: 11-12 (SI); cited from earlier work.
In a further assay the test system is 5-HT4. Particulars: cited from earlier work.
The target of assay [2] is T1, mTAAR5. Particulars: cited from earlier work; for Potency pIC50 (negative log of IC50, modulating cAMP levels): mTAAR5 antagonists; for Potency pEC50 (negative log of EC50, modulating cAMP levels): mTAAR5 agonist. On the technique in general: Changes in cAMP serve as a functional read-out for many G protein-coupled receptors.
Assay [3] deals with 5-HT1A. The following applies: cited from earlier work.
In assay [4] the target is T1, mTAAR5. Further details: method as in PMID 29713997. The following applies: training set inactives; cited from earlier work.
Assay [5] deals with T1, mTAAR5. The assay can be described thus: BRET cAMP assay, agonistic activity. The following applies: HEK-293 cells transfected with EPAC cAMP BRET biosensor and mTAAR5; compared to saline. Type of assay: cell-based. As to the method: as §1
Human embryonic kidney 293cells (HEK293) were maintained in Dulbecco’s modified Eagle’s, high glucose, GlutaMAX^TM medium (Gibco^TM) supplemented with 10% 331 (v/v) of FBS and 1% penicillin/streptomycin at 37 °C in a humidified atmosphere at 95% air and 5% CO2. […]
BRET experiments were performed as described previously.[60] […] For the evaluation of the agonistic activity, the plate was read immediately after the addition of the compounds for approximately 20 min. For the evaluation of the antagonistic activity, the compounds were added 5 min before the addition of the control TAAR5 agonist, TMA, and read for approximately 20 min. […] The activity of a putative mTAAR5 antagonist was evaluated in its ability to decrease or abolish the increase of the cAMP levels induced by TMA. […] Readings were collected using Tecan Infinite instrument that allows the sequential signals integration detected in the 465 to 505 nm and 515 to 555 nm windows. […]

For a further assay, the system named is empty vector CTRL cells. The assay can be described thus: BRET cAMP assay in cells without mTAAR5 (empty vector). The format is cell-based, human. Particulars: HEK-293 cells transfected with EPAC cAMP BRET biosensor and empty vector; listed as TMA. How it is done:
as §1
Figure S6. Effect of TMA on cAMP level is mediated by mTAAR5. HEK-293 cells were transfected with
EPAC cAMP BRET biosensor with mTAAR5 or empty vector.
calculated as mean ± SEM of 3 independent experiments.
(1 picture or pasted object on this page, not shown here)

Assay [6] relates to 5-HT1A. Further details: method as in ref 13-14 (SI). The following applies: ref 13-14 (SI); cited from earlier work.

As a reminder, the IC50 is the concentration at which inhibition is half-maximal. Low readings indicate greater potency in that assay, high ones weaker potency in that assay. For `CN1CCC(c2c[nH]c3ccc(O)cc23)CC1` [Compound 5, 3-(1-methylpiperidin-4-yl)-1H-indol-5-ol], the IC50 against mTAAR5 [1] is 2.7 µM. Besides, the “5-HT1E pEC50” value in the assay with 5-HT1E is recorded as 8.16. Besides, the “5-HT1F pKi” value at 5-HT1F is on record as 8.15.

For the molecule `CCN(CC)CCOC(=O)c1cc(Cl)c(N)cc1OC` [Compound 8, 2-(diethylamino)ethyl-4-amino-5-chloro-2-methoxybenzoate], on mTAAR5 [1], half-maximal inhibition (IC50) was put at 13 µM. In the assay with 5-HT4 (ref 17 (SI)), the “5-HT4 pIC50” value is 6.11.

On to `COc1ccccc1OCCNCC1COC(c2ccccc2)(c2ccccc2)O1` (centres unmarked) [Compound 4], for which the “Potency pIC50 (negative log of IC50, modulating cAMP levels)” value at mTAAR5 [2] is “pIC50: 3.54”. For the same molecule, the “5-HT1A pKi” value on 5-HT1A [3] (ref 5 (SI)) was 9.22.

Take `CCN(CC)CCNC(=O)c1cc(Cl)c(N)cc1OC` [Metoclopramide]: the “activity at mTAAR5 in previous HTS campaigns” value (shortened to “activity at mTAAR5”) at mTAAR5 [4] was “inactive”.

Turning to `C[N+](C)(C)CCC(=O)c1cccc2ccccc12` [Compound 2, Trimethyl-(3-naphthalen-1-yl-3-oxopropyl)azanium], at mTAAR5 [2], the “Potency pEC50 (negative log of EC50, modulating cAMP levels)” value was “pEC50: 5.82”.

As to `CCCN(CCC)[C@@H]1CCc2c(OC)cccc2[C@@H]1C` [(+)-UH 232], the “activity at mTAAR5” value on mTAAR5 [4] is “inactive”.

`COc1cc(N)c(Cl)cc1C(=O)OCCCN1CCCCC1` [Compound 7, 3-(piperidin-1-yl)propyl 4-amino-5-chloro-2-methoxybenzoate] showed a half-maximal inhibitory concentration (IC50) against mTAAR5 [1] of 4.7 µM. The “5-HT4 pIC50” value with 5-HT4 (ref 15-16 (SI)) is listed as 6.31.

`CN(C)C` [Compound 1, Trimethylamine]: the “effect on cAMP level with mTAAR5 expressed” value on mTAAR5 [5] is on record as “increases cAMP levels”. Moreover, the “effect on cAMP level in the absence of mTAAR5” value in the assay with empty vector CTRL cells was “not in empty vector CTRL cells; also recorded: no cAMP fluctuation”. In addition, the “Potency pEC50 (negative log of EC50, modulating cAMP levels)” value on mTAAR5 [2] is “pEC50: 5.49”.

In the case of `CCCN(CCC)C1CCc2cccc(O)c2C1` (centres unmarked) [Compound 6, 7-(dipropylamino)-5,6,7,8-tetrahydronaphthalen-1-ol], at mTAAR5 [1], the IC50 stood at 3.8 µM. In addition, the “5-HT1A pEC50” value in the assay on 5-HT1A [6] is given as 7.24.

Regarding `COc1ccccc1N1CCN(CC2CCC(c3ccccc3)(c3ccccc3)O2)CC1` (centres unmarked) [Compound 3, 1-[(5,5-Diphenyloxolan-2-yl)methyl]-4-(2-methoxyphenyl)piperazine], on mTAAR5 [2], the “Potency pIC50 (negative log of IC50, modulating cAMP levels)” value is “pIC50: 4.36”. Further, the “5-HT1A pKi” value at 5-HT1A [3] (ref 10 (SI)) is recorded as 7.64.

As to “N-[2-(piperidinylamino)ethyl]-4-iodobenzamide”, the “activity at mTAAR5” value on mTAAR5 [4] is “inactive”.
